Results reported in patent publication US20240425555A1, “MUTANT BRD4 POLYPEPTIDES AND METHODS OF USE THEREOF” (Northwestern University, priority 2023, published 2024).

Columns and labels:
Pol II pausing [1] = assay: total Pol II ChIP-seq upon auxin, JQ1, dBET6 or NVP-2 treatment; type: cell-based, human; details: BRD4-IAA7 cells
Source text: FIG. 1A illustrates the updated BRD4-IAA7 degron line. The F-box protein AtAFB2 was integrated into the C terminus of the BRD4 locus under the control of an independent promoter. […] These treatment concentrations/durations are relevant to all of FIG. 1. […] The gene list (N=6481) in this analysis is used throughout the study (except for FIGS. 3H-J). FIG. 1D illustrates the estimated Cumulative Density Function (ECDF) of pause release ratios (PRR, reported as log 2 fold change) for auxin treatment vs untreated control. The PRR is the ratio of Pol II occupancy within gene bodies to its occupancy at promoters. A leftward shift of the curve indicates an increase in the frequency and/or duration of promoter-proximal pausing, while a rightward shift indicates reduced pausing and/or more efficient release into gene bodies.
FIGS. 8A-8E. collectively illustrate the differences in Pol II pausing induced by BRD4 depletion and bromodomain inhibition, related to FIG. 1. FIG. 8A illustrates the western blot showing the expression of HA-tagged AtAFB2 and the auxin-induced degradation of V5-tagged BRD4 using anti-tag antibodies. FIG. 8B illustrates the western blot comparing the BRD4 protein expression level and degradation kinetics of the previously published BRD4-AID degron to those of the BRD4-IAA7 degron used in this study 12. Note: in FIGS. 8A and 8B, the BRD4-IAA7 clone used is D4 (Hygromycin selected); it is G3 (Neomycin selected) otherwise in the study. […] FIG. 8E illustrates the track examples of Pol II ChIP-seq signal at the HSPA8 and GAPDH loci upon NVP-2 treatment (2 h) and corresponding heatmaps showing Pol II occupancy profiles and fold change in occupancy vs control upon NVP-2 treatment.
To specifically deplete BRD4 without affecting other BET proteins, we generated an updated BRD4 degron line by modifying the published miniIAA7 degron system (hereafter BRD4-IAA7) to reduce basal degradation seen with AID degron-tagged BRD4^30 (FIGS. 1A and 8A).
DLD1 cells were crosslinked with 15 ml 1% PFA (ThermoFisher, #28908) in PBS on 15 cm plates for 10 minutes at RT and quenched by the addition of 2 ml 2.5M glycine followed by shaking for 5 minutes. Crosslinked cells were collected by scraping. Chromatin sonication was performed for 10 minutes using a Covaris E200 set to 10% duty factor, 200 cycles per burst, and 140 peak intensity power. For endogenous protein ChIP, 10-20% of mouse embryonic fibroblasts (MEF) chromatin (prepared the same way as in DLD1 cells) was added to each sample as a spike-in control. For overexpressed protein ChIP, such as GFP-ChIP, 20 ng spike-in chromatin (Active Motif, #53083) and 2 ug spike-in antibody (Active Motif, #61686) were added to each sample. Immunoprecipitation was carried out at 4° C. overnight using 5ul of Rpb1 (Cell Signaling Technology, #D8L4Y), 5ul of Ser2p (Active Motif, #61984), 10ul of CCNT1 (Cell Signaling Technology, #81464), 10ul of CDK9 (Santa Cruz Biotechnology, #sc-13130 X) antibodies, or 200ul of a cocktail consisting of 50ul of each GFP antibody (DSHB, #GFP-G1, #GFP-12A6, #GFP-12E6, #GFP-8H11). Immune complexes were enriched with Protein G-coupled Dynabeads (Invitrogen, #10004D) at 4° C. for >=4 h, and incubated with proteinase K (Roche, #3115828001) to reverse crosslink at 65° C. overnight. Eluted DNA was purified with the QIAquick PCR Purification Kit (Qiagen, #28106), and libraries were prepared using the KAPA HTP library preparation kit (Roche, #07961901001) for sequencing on the NovaSeq 6000.
Reads were aligned to hg38 with bowtie 1/250. Genes (N=6,481) with pausing site and TES annotation were obtained from a previously published study51. Promoter regions were designated as spanning from 100 bp upstream to 300 bp downstream of the pausing site. Gene body regions were designated as spanning from 300 bp downstream of the pausing site to the TES. FeatureCounts 2.0.152 was used to calculate the total mapped reads from Pol II ChIP-seq at promoters and within gene bodies. […]

CCNT1 = CCNT1 ChIP-seq with increasing concentrations of JQ1; type: cell-based, human; details: BRD4-IAA7 cells; series concentration of JQ1, 3 h
Description: (§1) FIGS. 5A-5J collectively illustrate the identification of a distinct BRD4-PTEFb population, which is active but not histone acetylation-bound. FIG. 5A illustrates the track examples for AID ChIP-seq in the BRD4-AID line and CCNT1 ChIP-seq in the BRD4-IAA7 line with/without auxin treatment (3 h). H3K27ac ChIP-seq signal in the BRD4-AID line is shown for comparison. FIG. 5B illustrates the heatmap showing the genome-wide BRD4 and CCNT1 occupancy profile and the corresponding fold change upon auxin treatment for the conditions in A. Genes ranked by BRD4 signal in control. FIG. 5C illustrates the scatter plot showing the relative promoter density of CCNT1 vs BRD4, calculated by the log 2RPKM of the ChIP-seq signals at the regions flanking (±1 Kb) the Pol II pausing sites. FIG. 5D illustrates the track examples for GFP ChIP-seq signal upon induction of GFP-tagged BRD4-FL or the indicated mutants (left). Heatmap showing the genome-wide fold changes of the GFP-tagged BRD4 mutants relative to the vector (right). The endogenous BRD4 was depleted by auxin treatment (3 h) in all samples. Genes are ranked by GFP signal in the GFP-BRD4-FL condition. FIG. 5E illustrates the track examples for CCNT1 ChIP-seq signal upon endogenous BRD4 depletion and rescue with indicated GFP-tagged mutants (left). Heatmap showing the genome-wide CCNT1 fold changes (right). […]

Ser2P = Ser2P ChIP-seq upon JQ1 or dBET6 treatment; type: cell-based, human; details: BRD4-IAA7 cells; series concentration of JQ1 or 250 nM dBET6, 3 h
Description: as §1

Pol II pausing [2] = details: reference 21; cited from earlier work

## Cc1sc2c(c1C)C(c1ccc(Cl)cc1)=N[C@@H](CC(=O)OC(C)(C)C)c1nnc(C)n1-2 [JQ1]
Pol II pausing [1]; MYC locus
  effect on pausing at super enhancer-controlled genes such as Myc: notable
Pol II pausing [1]; auxin 500 uM, JQ1 1 uM, dBET6 250 nM, 3 h
  Pol II pausing (Pol II occupancy profile): induced little to no pausing
Pol II pausing [1]; scatter plot
  gene-by-gene log 2PRR correlation with auxin treatment: poorly correlated
CCNT1
  CCNT1 ChIP-seq signals: decreased dramatically with increasing concentrations
Ser2P
  Ser2P ChIP-seq signals: minimal
Pol II pausing [2]
  effect on Pol II pausing (RNA-seq, NET-seq): only a modest effect on Pol II pausing
